One experiment deals with T1, JAK3 (Homo sapiens, UniProt P52333).
T1 construct: endogenous in cells; host or cells: Mixed Molt4/Ramos lysate (1:2)
T1 sequence (P52333 1-1124): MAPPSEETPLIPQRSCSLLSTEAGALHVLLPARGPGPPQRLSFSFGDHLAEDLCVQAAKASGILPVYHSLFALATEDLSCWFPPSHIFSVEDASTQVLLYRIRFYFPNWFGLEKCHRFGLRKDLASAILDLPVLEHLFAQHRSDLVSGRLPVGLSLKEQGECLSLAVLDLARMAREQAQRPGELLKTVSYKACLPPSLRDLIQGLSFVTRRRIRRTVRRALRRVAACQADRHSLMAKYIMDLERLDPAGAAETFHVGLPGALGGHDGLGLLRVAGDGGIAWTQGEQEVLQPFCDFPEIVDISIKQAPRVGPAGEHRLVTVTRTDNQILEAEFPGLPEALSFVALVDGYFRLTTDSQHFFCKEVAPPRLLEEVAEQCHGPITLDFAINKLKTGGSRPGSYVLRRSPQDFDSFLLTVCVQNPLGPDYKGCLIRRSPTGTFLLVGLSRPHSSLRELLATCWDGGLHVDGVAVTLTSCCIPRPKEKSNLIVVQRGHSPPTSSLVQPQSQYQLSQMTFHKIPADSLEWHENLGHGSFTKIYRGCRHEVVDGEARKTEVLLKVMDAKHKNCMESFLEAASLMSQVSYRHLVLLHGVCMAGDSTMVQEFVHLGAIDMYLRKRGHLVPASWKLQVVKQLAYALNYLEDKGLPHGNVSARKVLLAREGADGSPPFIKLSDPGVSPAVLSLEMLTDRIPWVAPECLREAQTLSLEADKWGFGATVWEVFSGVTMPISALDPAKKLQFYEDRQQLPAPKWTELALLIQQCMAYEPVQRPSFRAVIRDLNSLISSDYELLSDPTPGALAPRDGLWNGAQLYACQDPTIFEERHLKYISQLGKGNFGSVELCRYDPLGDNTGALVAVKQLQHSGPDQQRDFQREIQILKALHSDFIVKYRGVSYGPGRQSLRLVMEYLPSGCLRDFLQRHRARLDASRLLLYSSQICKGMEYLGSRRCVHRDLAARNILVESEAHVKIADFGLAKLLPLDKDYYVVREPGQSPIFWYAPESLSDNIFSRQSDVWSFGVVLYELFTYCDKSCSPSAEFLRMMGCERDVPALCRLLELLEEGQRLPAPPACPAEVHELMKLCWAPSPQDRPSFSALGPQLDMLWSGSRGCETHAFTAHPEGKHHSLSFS
Briefly: Kinobeads assay, JAK3. It is filed as binding. The note with it: mixed Molt4/Ramos cell lysate, dot blot detection. The essentials: (§1)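 Lysate from Molt4 and Ramos cells combined 1:2 at 10 mg/mL total protein met test compound and an aminopyrido-pyrimidine affinity matrix for 3 h in the cold. Captured JAK2 and JAK3, after elution, were measured by specific-antibody dot blot on an infrared system; dose-response curves yielded IC50.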

The target in the next experiment is T2, JAK2 (Homo sapiens, UniProt O60674).
T2 construct: endogenous in cells; host or cells: Mixed Molt4/Ramos lysate (1:2)
T2 sequence (O60674 whole entry): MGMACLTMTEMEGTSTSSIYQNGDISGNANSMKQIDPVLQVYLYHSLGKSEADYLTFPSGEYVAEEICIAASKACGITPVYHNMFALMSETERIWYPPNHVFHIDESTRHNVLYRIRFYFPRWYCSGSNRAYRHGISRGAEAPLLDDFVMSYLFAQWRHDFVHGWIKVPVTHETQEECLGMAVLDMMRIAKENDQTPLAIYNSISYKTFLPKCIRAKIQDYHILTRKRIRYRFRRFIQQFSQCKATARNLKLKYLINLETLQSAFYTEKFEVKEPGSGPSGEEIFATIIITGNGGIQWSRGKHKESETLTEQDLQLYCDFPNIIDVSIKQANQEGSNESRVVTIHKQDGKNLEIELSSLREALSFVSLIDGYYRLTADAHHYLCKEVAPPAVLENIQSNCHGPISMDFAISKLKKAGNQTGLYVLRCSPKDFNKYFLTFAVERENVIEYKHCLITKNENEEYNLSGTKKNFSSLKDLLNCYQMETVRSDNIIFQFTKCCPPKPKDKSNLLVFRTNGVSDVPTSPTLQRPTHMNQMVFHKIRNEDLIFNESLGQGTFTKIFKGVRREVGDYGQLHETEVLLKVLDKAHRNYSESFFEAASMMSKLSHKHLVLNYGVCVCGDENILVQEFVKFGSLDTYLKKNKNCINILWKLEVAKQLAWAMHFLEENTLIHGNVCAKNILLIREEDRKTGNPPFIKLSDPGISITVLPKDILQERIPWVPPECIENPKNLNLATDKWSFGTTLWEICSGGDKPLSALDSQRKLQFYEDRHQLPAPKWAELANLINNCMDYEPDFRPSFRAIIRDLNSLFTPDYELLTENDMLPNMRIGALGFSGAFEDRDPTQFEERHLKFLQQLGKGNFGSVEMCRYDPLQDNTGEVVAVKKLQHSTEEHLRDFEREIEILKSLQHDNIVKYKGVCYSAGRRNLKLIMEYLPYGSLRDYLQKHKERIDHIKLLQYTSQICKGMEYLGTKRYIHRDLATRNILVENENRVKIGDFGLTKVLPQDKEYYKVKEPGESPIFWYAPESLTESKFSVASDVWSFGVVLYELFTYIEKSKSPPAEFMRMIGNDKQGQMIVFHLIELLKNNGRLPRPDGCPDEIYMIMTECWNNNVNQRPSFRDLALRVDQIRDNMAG
The experiment is described as follows: Kinobeads assay, JAK2. It is filed as binding. The note with it: mixed Molt4/Ramos cell lysate, dot blot detection. The method, boiled down:
as §1

The record followed here is US9242987B2, “Heterocyclyl pyrazolopyrimidine analogues as JAK inhibitors” (Cellzome Limited, priority 2009, dated 2016).

As a reminder, the pIC50 is the negative decadic logarithm of the IC50, by convention in mol/L.

pIC50: −log10 of the molar value.

In the case of `CNC(=O)c1ccc(-n2ncc3cnc(Nc4cnn(C)c4)nc32)cc1` [Example 136, N-methyl-4-(6-((1-methyl-1H-pyrazol-4-yl)amino)-1H-pyrazolo[3,4-d]pyrimidin-1-yl)benzamide], the negative-log IC50 (pIC50) on JAK3 is 6.00 to 7.00; against JAK2, 5.00 to 6.00.
`CS(=O)(=O)n1cc(Nc2ncc3cnn(Cc4ccccc4F)c3n2)cn1` [Example 96, 1-(2-Fluorobenzyl)-N-(1-(methylsulfonyl)-1H-pyrazol-4-yl)-1H-pyrazolo[3,4-d]pyrimidin-6-amine]: the negative-log IC50 (pIC50) against JAK3 is 6.00 to 7.00; against JAK2, ≤ 5.00.
In the case of `COc1nn(CC(F)F)cc1Nc1ncc2cnn(Cc3ccccc3)c2n1` [Example 119, 1-Benzyl-N-(1-(2,2-difluoroethyl)-3-methoxy-1H-pyrazol-4-yl)-1H-pyrazolo[3,4-d]pyrimidin-6-amine], the pIC50 is 6.00 to 7.00 at JAK3 and ≤ 5.00 at JAK2.
For `Cn1cc(Nc2ncc3cnn(Cc4ccccc4OC(F)(F)F)c3n2)cn1` [Example 85, N-(1-Methyl-1H-pyrazol-4-yl)-1-(2-(trifluoromethoxy)benzyl)-1H-pyrazolo[3,4-d]pyrimidin-6-amine] the same measures were > 7.00 and 5.00 to 6.00.
For `Cn1cc(Nc2ncc3cnn(Cc4ccccc4NS(C)(=O)=O)c3n2)cn1` [Example 75, N-(2-((6-((1-Methyl-1H-pyrazol-4-yl)amino)-1H-pyrazolo[3,4-d]pyrimidin-1-yl)methyl)phenyl)methanesulfonamide] the same measures were > 7.00 and 6.00 to 7.00.
For `Cn1cc(Nc2ncc3cnn(Cc4ccccc4)c3n2)cn1` [Example 76, 1-Benzyl-N-(1-methyl-1H-pyrazol-4-yl)-1H-pyrazolo[3,4-d]pyrimidin-6-amine], the negative logarithm of the IC50 (pIC50) was > 7.00 against JAK3 and 5.00 to 6.00 against JAK2.
Consider `Cn1cc(Nc2ncc3cnn(Cc4cccc(-c5ccncc5)c4)c3n2)cn1` [Example 230, N-(1-Methyl-1H-pyrazol-4-yl)-1-(3-(pyridin-4-yl)benzyl)-1H-pyrazolo[3,4-d]pyrimidin-6-amine], for which the pIC50 on JAK3 is > 7.00; on JAK2 it was ≤ 5.00.
The like results for `CC(O)Cn1cc(Nc2ncc3cnn(Cc4ccccc4F)c3n2)cn1` (centres unmarked) [Example 89, 1-(4-((1-(2-Fluorobenzyl)-1H-pyrazolo[3,4-d]pyrimidin-6-yl)amino)-1H-pyrazol-1-yl)propan-2-ol] were, in that order, > 7.00 and 6.00 to 7.00.
The like results for `Cn1cc(Nc2ncc3cnn(Cc4c(F)c(F)cc(F)c4F)c3n2)cn1` [Example 163, N-(1-Methyl-1H-pyrazol-4-yl)-1-(2,3,5,6-tetrafluorobenzyl)-1H-pyrazolo[3,4-d]pyrimidin-6-amine] were, in that order, > 7.00 and 6.00 to 7.00.
The like results for `CC(C)c1cccc(Cn2ncc3cnc(Nc4cnn(C)c4)nc32)c1` [Example 100, 1-(3-Isopropylbenzyl)-N-(1-methyl-1H-pyrazol-4-yl)-1H-pyrazolo[3,4-d]pyrimidin-6-amine] were, in that order, 6.00 to 7.00 and ≤ 5.00.
Take `Cn1cc(Nc2ncc3cnn(CCc4ccccc4F)c3n2)cn1` [Example 77, 1-(2-Fluorophenethyl)-N-(1-methyl-1H-pyrazol-4-yl)-1H-pyrazolo[3,4-d]pyrimidin-6-amine]: the negative-log IC50 (pIC50) was 6.00 to 7.00 against JAK3 and ≤ 5.00 on JAK2.
On to `Fc1ccccc1Cn1ncc2cnc(Nc3cnn(CCN4CCNCC4)c3)nc21` [Example 182, 1-(2-Fluorobenzyl)-N-(1-(2-(piperazin-1-yl)ethyl)-1H-pyrazol-4-yl)-1H-pyrazolo[3,4-d]pyrimidin-6-amine], for which the negative logarithm of the IC50 (pIC50) was > 7.00 against JAK3 and 6.00 to 7.00 against JAK2.
The like results for `Cn1cc(Nc2ncc3cnn(Cc4cccc(Cl)c4)c3n2)cn1` [Example 70, 1-(3-Chlorobenzyl)-N-(1-methyl-1H-pyrazol-4-yl)-1H-pyrazolo[3,4-d]pyrimidin-6-amine] were, in that order, > 7.00 and 6.00 to 7.00.
